From patent US12264155B2, “Compounds, pharmaceutical compositions, and methods of preparing compounds and of their use as ATR kinase inhibitors” (Repare Therapeutics Inc., priority 2018, dated 2025)
Read-outs that look alike come from different tables or passages of the source.

Target: ATR/ATRIP (Homo sapiens (Human), UniProt Q13535)
Test: ATR/ATRIP enzymatic assay (AlphaScreen, phosphorylation of p53)
[1] = read-out: ATR IC50, recombinant ATR/ATRIP 0.63 nM, 25 nM GST-p53, 3 μM ATP, 1 hour room temperature

ATR/ATRIP, sequence (Q13535 whole entry): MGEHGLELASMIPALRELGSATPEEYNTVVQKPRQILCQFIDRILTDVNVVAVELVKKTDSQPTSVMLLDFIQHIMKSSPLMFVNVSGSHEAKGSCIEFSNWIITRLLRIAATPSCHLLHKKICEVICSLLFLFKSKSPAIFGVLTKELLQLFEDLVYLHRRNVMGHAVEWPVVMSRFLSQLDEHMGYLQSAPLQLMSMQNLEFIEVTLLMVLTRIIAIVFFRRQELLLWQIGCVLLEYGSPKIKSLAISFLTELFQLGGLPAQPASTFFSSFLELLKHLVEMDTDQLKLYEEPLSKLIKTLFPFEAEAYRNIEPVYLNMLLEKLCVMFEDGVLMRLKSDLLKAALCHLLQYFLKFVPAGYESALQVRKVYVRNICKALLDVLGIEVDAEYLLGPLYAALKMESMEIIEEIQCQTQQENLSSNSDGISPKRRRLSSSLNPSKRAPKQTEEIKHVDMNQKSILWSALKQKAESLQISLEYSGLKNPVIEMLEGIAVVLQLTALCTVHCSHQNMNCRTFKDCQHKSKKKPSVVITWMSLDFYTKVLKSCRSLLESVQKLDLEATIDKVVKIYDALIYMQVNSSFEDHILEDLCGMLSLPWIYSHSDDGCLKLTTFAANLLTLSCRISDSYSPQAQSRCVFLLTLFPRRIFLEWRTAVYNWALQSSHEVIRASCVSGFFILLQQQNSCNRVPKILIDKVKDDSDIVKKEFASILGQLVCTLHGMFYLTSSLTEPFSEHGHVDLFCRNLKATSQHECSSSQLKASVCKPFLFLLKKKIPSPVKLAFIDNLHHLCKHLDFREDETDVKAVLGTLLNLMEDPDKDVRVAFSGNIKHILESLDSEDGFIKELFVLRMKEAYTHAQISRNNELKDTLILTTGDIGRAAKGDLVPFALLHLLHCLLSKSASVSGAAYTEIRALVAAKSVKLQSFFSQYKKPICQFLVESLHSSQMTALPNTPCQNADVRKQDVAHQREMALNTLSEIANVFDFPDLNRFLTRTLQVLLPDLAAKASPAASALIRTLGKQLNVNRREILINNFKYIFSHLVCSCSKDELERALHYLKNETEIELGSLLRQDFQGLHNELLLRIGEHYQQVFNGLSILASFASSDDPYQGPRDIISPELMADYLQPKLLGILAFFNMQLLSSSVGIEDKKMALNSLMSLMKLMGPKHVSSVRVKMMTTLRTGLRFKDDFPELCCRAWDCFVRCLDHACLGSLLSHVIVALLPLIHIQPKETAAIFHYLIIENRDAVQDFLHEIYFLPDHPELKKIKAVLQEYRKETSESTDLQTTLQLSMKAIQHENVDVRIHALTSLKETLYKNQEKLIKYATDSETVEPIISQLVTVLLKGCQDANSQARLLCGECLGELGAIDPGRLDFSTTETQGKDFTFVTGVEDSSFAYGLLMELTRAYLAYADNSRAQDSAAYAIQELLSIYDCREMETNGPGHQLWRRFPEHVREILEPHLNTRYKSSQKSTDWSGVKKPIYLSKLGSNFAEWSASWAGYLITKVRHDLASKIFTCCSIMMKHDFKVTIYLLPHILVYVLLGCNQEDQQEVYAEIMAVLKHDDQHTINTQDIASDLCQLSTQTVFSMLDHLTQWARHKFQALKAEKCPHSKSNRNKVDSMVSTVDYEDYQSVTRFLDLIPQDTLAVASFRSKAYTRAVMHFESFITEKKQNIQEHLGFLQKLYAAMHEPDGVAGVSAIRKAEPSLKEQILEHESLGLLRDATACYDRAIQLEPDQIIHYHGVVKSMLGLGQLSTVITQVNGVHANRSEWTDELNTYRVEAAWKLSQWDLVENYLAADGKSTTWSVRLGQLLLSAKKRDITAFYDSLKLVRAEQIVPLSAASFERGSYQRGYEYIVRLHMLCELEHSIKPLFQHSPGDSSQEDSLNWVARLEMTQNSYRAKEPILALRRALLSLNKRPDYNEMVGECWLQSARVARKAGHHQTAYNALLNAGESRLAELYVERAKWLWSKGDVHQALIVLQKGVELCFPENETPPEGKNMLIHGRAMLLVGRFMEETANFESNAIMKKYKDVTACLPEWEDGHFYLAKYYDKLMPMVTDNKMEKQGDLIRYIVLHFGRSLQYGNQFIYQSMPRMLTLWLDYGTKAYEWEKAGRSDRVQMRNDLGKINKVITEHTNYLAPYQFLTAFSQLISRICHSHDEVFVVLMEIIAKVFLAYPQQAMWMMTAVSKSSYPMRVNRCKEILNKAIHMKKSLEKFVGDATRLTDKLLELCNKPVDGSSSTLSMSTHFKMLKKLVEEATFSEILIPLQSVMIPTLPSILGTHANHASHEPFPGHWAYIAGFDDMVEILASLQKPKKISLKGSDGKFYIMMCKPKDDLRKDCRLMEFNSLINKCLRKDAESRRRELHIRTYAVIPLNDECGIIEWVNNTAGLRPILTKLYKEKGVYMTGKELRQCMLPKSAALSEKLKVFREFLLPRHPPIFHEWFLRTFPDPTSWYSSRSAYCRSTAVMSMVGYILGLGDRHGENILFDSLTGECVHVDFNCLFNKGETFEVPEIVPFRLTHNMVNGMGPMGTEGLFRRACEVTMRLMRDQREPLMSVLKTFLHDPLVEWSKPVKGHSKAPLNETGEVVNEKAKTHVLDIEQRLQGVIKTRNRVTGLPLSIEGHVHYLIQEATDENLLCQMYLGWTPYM
ATR/ATRIP, sequence (Q8WXE1 whole entry partner): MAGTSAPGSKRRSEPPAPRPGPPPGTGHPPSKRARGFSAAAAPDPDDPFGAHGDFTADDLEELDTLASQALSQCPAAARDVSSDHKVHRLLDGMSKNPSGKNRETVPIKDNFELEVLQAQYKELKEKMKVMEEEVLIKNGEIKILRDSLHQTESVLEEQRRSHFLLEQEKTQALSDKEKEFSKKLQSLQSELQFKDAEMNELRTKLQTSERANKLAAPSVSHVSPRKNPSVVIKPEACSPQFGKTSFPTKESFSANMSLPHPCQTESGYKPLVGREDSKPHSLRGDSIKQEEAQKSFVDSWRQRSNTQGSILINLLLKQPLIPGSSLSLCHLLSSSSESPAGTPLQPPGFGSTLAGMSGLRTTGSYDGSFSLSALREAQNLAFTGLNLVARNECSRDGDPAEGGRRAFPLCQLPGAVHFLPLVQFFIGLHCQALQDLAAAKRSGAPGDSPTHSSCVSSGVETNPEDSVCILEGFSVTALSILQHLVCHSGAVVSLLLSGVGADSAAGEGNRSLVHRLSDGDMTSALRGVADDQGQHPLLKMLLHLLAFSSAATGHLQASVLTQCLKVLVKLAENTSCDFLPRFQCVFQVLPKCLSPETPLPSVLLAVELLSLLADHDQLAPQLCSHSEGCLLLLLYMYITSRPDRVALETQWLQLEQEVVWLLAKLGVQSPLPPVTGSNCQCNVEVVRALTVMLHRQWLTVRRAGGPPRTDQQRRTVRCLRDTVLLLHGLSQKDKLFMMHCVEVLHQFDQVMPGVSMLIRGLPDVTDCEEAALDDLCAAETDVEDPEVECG
Experimental: Detection of ATR kinase activity utilized the AlphaScreen system to measure the phosphorylation of the substrate protein p53. […] Plates were incubated at room temperature in the dark for 4 hours and read on a BMG Polarstar using AlphaScreen dedicated filters. […] IC50 values were determined using a 4-parameter fit algorithm.

Structure (SMILES) | IC50 [1] [nM] | IC50 [nM]
COc1cc(-c2cc(N3CCOC[C@H]3C)nc3c2ccn3-c2cc[nH]n2)ccn1 [Compound 39] | > 10000 | –
COc1ccc(-c2cc(N3CCOC[C@H]3C)nc3c2c(C)cn3-c2cc[nH]n2)cn1 [Compound 21] | 828 | –
C[C@@H]1COCCN1c1cc(C(C)(C)C#N)c2cnn(Cc3ccn[nH]3)c2n1 [Compound 66] | – | 448
C[C@@H]1COCCN1c1cc(-c2ccnn2C)c2ccn(-c3cc[nH]n3)c2n1 [Compound 34] | 451 | –
C[C@@H]1COCCN1c1cc(S(=O)(=O)C2CC2)c2cnn(-c3cc[nH]n3)c2n1 [Compound 45] | 5 | –
C[C@@H]1COCCN1c1cc(N2CCNC(=O)C2)c2cnn(-c3ccn[nH]3)c2n1 [Compound 87] | 10 | –
C[C@@H]1COCCN1c1cc(C2(C#N)CCC2)c2cnn(-c3cc[nH]n3)c2n1 [Compound 27] | 135 | –
C[C@@H]1COCCN1c1cc(C(C)(C)C#N)c2cnn(-c3n[nH]cc3F)c2n1 [Compound 68] | 1340 | –
C[C@@H]1COCCN1c1cc(C2(C#N)CCN(C(=O)OC(C)(C)C)C2)c2cnn(-c3cc[nH]n3)c2n1 (stereo partly shown) [Compound 80] | 6 | –
C[C@@H]1COCCN1c1cc(-c2ccccc2[S+](C)[O-])c2ccn(-c3cc[nH]n3)c2n1 (stereo partly shown) [Compound 20] | 229 | –
C[C@@H]1COCCN1c1cc(C(C)(C)O)c2cnn(-c3cccc(N)n3)c2n1 [Compound 65] | 104 | –
C[C@@H]1COCCN1c1cc(C(=O)N2CCOCC2)c2ccn(-c3cc[nH]n3)c2n1 [Compound 18] | 1940 | –
CC(C)c1cc(N2CCOC[C@H]2C)nc2c1ccn2-c1cc[nH]n1 [Compound 31] | 1420 | –
Cc1ccnc(-n2ncc3c(C(C)(C)O)cc(N4CCOC[C@H]4C)nc32)c1 [Compound 64] | 92 | –
C[C@@H]1COCCN1c1cc(S(C)(=O)=O)c2cnn(-c3cc[nH]n3)c2n1 [Compound 44] | 27 | –
C[C@@H]1COCCN1c1cc(C2(O)CCN(C)CC2)c2cnn(-c3cc[nH]n3)c2n1 [Compound 60] | 37 | –
C[C@@H]1COCCN1c1cc(-c2nncs2)c2cnn(-c3cc[nH]n3)c2n1 [Compound 72] | 94 | –
Cc1cc(-n2ncc3c(C(C)(C)C#N)cc(N4CCOC[C@H]4C)nc32)[nH]n1 [Compound 86] | < 5 | –
C[C@@H]1COCCN1c1cc(C2(C#N)CCSCC2)c2cnn(-c3cc[nH]n3)c2n1 [Compound 74] | 8 | –
C[C@@H]1COCCN1c1cc(C(=O)N(C)Cc2ccccc2)c2ccn(-c3cc[nH]n3)c2n1 [Compound 19] | 540 | –
C[C@@H]1COCCN1c1cc(C2(S(C)(=O)=O)CC2)c2ccn(-c3cn[nH]c3C(F)(F)F)c2n1 [Compound 37] | > 1000 | –
C[C@@H]1COCCN1c1cc(CC#N)c2cnn(-c3cc[nH]n3)c2n1 [Compound 32] | 54 | –
C[C@@H]1COCCN1c1cc(C2(C#N)CN(C(=O)OC(C)(C)C)C2)c2cnn(-c3cc[nH]n3)c2n1 [Compound 79] | 30 | –
C[C@@H]1COCCN1c1cc(C(C)(C)O)c2cnn(-c3cc[nH]n3)c2n1 [Compound 2, (R)-2-(6-(3-methylmorpholino)-1-(1H-pyrazol-3-yl)-1H-pyrazolo[3,4-b]pyridin-4-yl)propan-2-ol] | 40 | –
C[C@@H]1COCCN1c1cc(C(C)(C)O)c2ccn(-c3cc[nH]n3)c2n1 [Compound 10] | 1600 | –

Structure (SMILES) | IC50 [1] [nM] | IC50 [nM]
C[C@@H]1COCCN1c1cc(N2CCCCS2(=O)=O)c2cnn(-c3cc[nH]n3)c2n1 [Compound 53] | 9 | –
COc1ccc(-c2cc(N3CCOC[C@H]3C)nc3c2ccn3-c2cc[nH]n2)cn1 [Compound 16] | 1520 | –
C[C@@H]1COCCN1c1cc(-c2ccncn2)c2ccn(-c3cc[nH]n3)c2n1 [Compound 13] | 1650 | –
C[C@@H]1COCCN1c1cc(-c2ccc(S(C)(=O)=O)cc2)c2cnn(-c3ccn[nH]3)c2n1 [Compound 89] | 31 | –
C[C@@H]1COCCN1c1cc(C(C)(C)O)c2cnn(-c3cccnn3)c2n1 [Compound 67] | 198 | –
C[C@@H]1COCCN1c1cc(C(C)(C)C#N)c2ccn(-c3cc[nH]n3)c2n1 [Compound 11] | 101 | –
C[C@@H]1COCCN1c1cc(-c2ccccc2F)c2cnn(-c3ccn[nH]3)c2n1 [Compound 91] | < 5 | –
C[C@@H]1COCCN1c1cc(C2(C#N)CCCCC2)c2cnn(-c3cc[nH]n3)c2n1 [Compound 5, (R)-1-(6-(3-methylmorpholino)-1-(1H-pyrazol-3-yl)-1H-pyrazolo[3,4-b]pyridin-4-yl)cyclohexane-1-carbonitrile] | 3 | –
C[C@@H]1COCCN1c1cc(C2(CN)CCCCC2)c2cnn(-c3cc[nH]n3)c2n1 [Compound 78] | 24 | –
C[C@@H]1COCCN1c1cc(-c2ccncc2)c2ccn(-c3cc[nH]n3)c2n1 [Compound 15] | 1870 | –
C[C@@H]1COCCN1c1cc(C(C)(C)C#N)c2cnn(-c3ncc[nH]3)c2n1 [Compound 90] | 165 | –
C[C@@H]1COCCN1c1cc(C(C)(C)O)c2cnn(-c3ccccn3)c2n1 [Compound 63] | 11 | –
COc1cc(N2CCOC[C@H]2C)nc2c1cnn2-c1cc[nH]n1 [Compound 51] | 141 | –
COC(C)(C)c1cc(N2CCOC[C@H]2C)nc2c1ccn2-c1cc[nH]n1 [Compound 30] | 284 | –
C[C@@H]1COCCN1c1cc(-c2cccs2)c2ccn(-c3cc[nH]n3)c2n1 [Compound 41] | > 10000 | –
C[C@@H]1COCCN1c1cc(C2(O)CCC(C)(C#N)CC2)c2cnn(-c3cc[nH]n3)c2n1 (stereo partly shown) [Compound 59] | 10 | –
C[C@@H]1COCCN1c1cc(C2(C#N)CC[S+]([O-])CC2)c2cnn(-c3cc[nH]n3)c2n1 (stereo partly shown) [Compound 75] | 29 | –
Cc1ccncc1-c1cc(N2CCOC[C@H]2C)nc2c1ccn2-c1cc[nH]n1 [Compound 9] | 37 | –
C[C@@H]1COCCN1c1cc(C2(S(C)(=O)=O)CC2)c2ccn(-c3cn[nH]c3)c2n1 [Compound 38] | > 1000 | –
C[C@@H]1COCCN1c1cc(N(C)c2cccnc2)c2ccn(-c3cc[nH]n3)c2n1 [Compound 22] | 876 | –
C[C@@H]1COCCN1c1cc(C2(C#N)CCS(=O)(=O)CC2)c2cnn(-c3cc[nH]n3)c2n1 [Compound 76] | 36 | –
Cc1c[nH]nc1-n1ccc2c(C3(S(C)(=O)=O)CC3)cc(N3CCOC[C@H]3C)nc21 [Compound 36] | > 1000 | –
C=Cc1nn(-c2cc[nH]n2)c2nc(N3CCOC[C@H]3C)cc(C(C)(C)C#N)c12 [Compound 71] | < 5 | –
C[C@@H]1COCCN1c1cc(S(=O)(=O)c2ccccc2)c2cnn(-c3cc[nH]n3)c2n1 [Compound 50] | 116 | –
C[C@@H]1COCCN1c1cc(Nc2cccnc2)c2ccn(-c3cc[nH]n3)c2n1 [Compound 17] | 1210 | –

Structure (SMILES) | IC50 [1] [nM] | IC50 [nM]
Cc1cn(-c2cc[nH]n2)c2nc(N3CCOC[C@H]3C)cc(C(C)(C)C#N)c12 [Compound 7, (R)-2-methyl-2-(3-methyl-6-(3-methylmorpholino)-1-(1H-pyrazol-3-yl)-1H-pyrrolo[2,3-b]pyridin-4-yl)propanenitrile] | 403 | –
C[C@@H]1COCCN1c1cc(I)c2cnn(-c3ccn[nH]3)c2n1 [Compound 42] | 32 | –
C[C@@H]1COCCN1c1cc(C2(C#N)CCN(C(=O)OC(C)(C)C)CC2)c2cnn(-c3cc[nH]n3)c2n1 [Compound 81] | 8 | –
C[C@@H]1COCCN1c1cc(C2(O)CCC3(CC2)CSC3)c2cnn(-c3cc[nH]n3)c2n1 [Compound 61] | 2 | –
C[C@@H]1COCCN1c1cc(-c2cccc(S(C)(=O)=O)c2)c2cnn(-c3ccn[nH]3)c2n1 [Compound 92] | 8 | –
C[C@@H]1COCCN1c1cc(N(C)S(C)(=O)=O)c2cnn(-c3cc[nH]n3)c2n1 [Compound 52] | 8 | –
C[C@@H]1COCCN1c1cc(C(C)(C)C(N)=O)c2ccn(-c3cc[nH]n3)c2n1 [Compound 12] | 379 | –
C[C@@H]1COCCN1c1cc(-c2ccccc2S(C)(=O)=O)c2ccn(-c3cc[nH]n3)c2n1 [Compound 6, (R)-3-methyl-4-(4-(2-(methylsulfonyl)phenyl)-1-(1H-pyrazol-3-yl)-1H-pyrrolo[2,3-b]pyridin-6-yl)morpholine] | 425 | –
C[C@@H]1COCCN1c1cc(C2(C(N)=O)CCCCC2)c2cnn(-c3cc[nH]n3)c2n1 [Compound 77] | 5 | –
C[C@@H]1COCCN1c1cc(C(C)(C#N)C2COC2)c2cnn(-c3cc[nH]n3)c2n1 (stereo partly shown) [Compound 49] | 11 | –
C[C@@H]1COCCN1c1cc(C2(C#N)CCOCC2)c2cnn(-c3cc[nH]n3)c2n1 [Compound 73] | 3 | –
Cc1ccc(-c2cc(N3CCOC[C@H]3C)nc3c2ccn3-c2cc[nH]n2)nn1 [Compound 14] | 1150 | –
C[C@@H]1COCCN1c1cc(C2(C#N)CCNCC2)c2cnn(-c3cc[nH]n3)c2n1 [Compound 83] | 22 | –
C[C@@H]1COCCN1c1cc(C2(C#N)CC2)c2ccn(-c3cc[nH]n3)c2n1 [Compound 29] | 580 | –
C[C@@H]1COCCN1c1cc(C2(C#N)CNC2)c2cnn(-c3cc[nH]n3)c2n1 [Compound 82] | 17 | –
C[C@@H]1COCCN1c1cc(C(C)(C)C(N)=O)c2cnn(-c3cc[nH]n3)c2n1 [Compound 4, (R)-2-methyl-2-(6-(3-methylmorpholino)-1-(1H-pyrazol-3-yl)-1H-pyrazolo[3,4-b]pyridin-4-yl)propanamide] | 56 | –
C[C@@H]1COCCN1c1cc(C2(C#N)CCCC2)c2cnn(-c3cc[nH]n3)c2n1 [Compound 28] | 4 | –
C[C@@H]1COCCN1c1cc(N2CCCS2(=O)=O)c2cnn(-c3cc[nH]n3)c2n1 [Compound 54] | 23 | –
C[C@@H]1COCCN1c1cc(C2(C#N)CCNC2)c2cnn(-c3cc[nH]n3)c2n1 (stereo partly shown) [Compound 84] | 9 | –
C[C@@H]1COCCN1c1nc2c(cnn2-c2cc[nH]n2)c(C(C)(C)C#N)c1Cl [Compound 69] | 554 | –
C[C@@H]1COCCN1c1cc(-c2ccccc2F)c2cnn(-c3ccn[nH]3)c2n1 [Compound 48] | 5 | –
C[C@@H]1COCCN1c1cc(C(C)(C)C#N)c2cnn(-c3cc[nH]n3)c2n1 [Compound 24] | 6 | –
C[C@@H]1COCCN1c1cc(C(N)=O)c2cnn(-c3cc[nH]n3)c2n1 [Compound 23] | 264 | –
